Measurements taken from ChEMBL document CHEMBL3885881, “DrugMatrix”.

Species: Rattus norvegicus
Experiment: DrugMatrix - Regimen: Daily Repeat
Format: toxicity, organism-based, Sprague-Dawley
Set-up: regimen Daily Repeat, gender Male, age 6-8 weeks
Settings: in vivo, po, route oral GAVAGE, […]; for ABSOLUTE BASOPHIL / ABSOLUTE EOSINOPHIL / ABSOLUTE LYMPHOCYTE / ABSOLUTE MONOCYTE / ABSOLUTE SEGMENTED NEUTROPHIL / BASOPHIL / EOSINOPHIL / ERYTHROCYTE COUNT / HEMATOCRIT / HEMOGLOBIN / LEUKOCYTE COUNT / LYMPHOCYTE / MEAN CORPUSCULAR HEMOGLOBIN / MEAN CORPUSCULAR HEMOGLOBIN CONCENTRATION / MEAN CORPUSCULAR VOLUME / MONOCYTE / NEUTROPHIL / NUCLEATED RED BLOOD CELLS / PLATELET COUNT: tissue Blood; for ALANINE AMINOTRANSFERASE / ALBUMIN / ALKALINE PHOSPHATASE / ASPARTATE AMINOTRANSFERASE / BLOOD UREA NITROGEN / CARBON DIOXIDE / CHLORIDE / CHOLESTEROL / CREATINE PHOSPHOKINASE / CREATININE / GLUCOSE / LACTATE DEHYDROGENASE / LIPASE / PHOSPHORUS / POTASSIUM / SODIUM / TOTAL BILIRUBIN / TOTAL PROTEIN / URIC ACID: tissue Plasma
[1] = 0 mg/kg, 72 h, dose level Control, time 3 day
[2] = 0 mg/kg, 120 h, dose level Control, time 5 day
[3] = 1 mg/kg, 72 h, dose level Low, time 3 day

`CCOC(=O)C1=C(C)NC(C)=C(C(=O)OCC)C1c1ccccc1/C=C/C(=O)OC(C)(C)C` [LACIDIPINE] was tested, and the “ABSOLUTE BASOPHIL” value [1] was 0 CELLS/uL, the “ABSOLUTE EOSINOPHIL” value [1] was 13.67 CELLS/uL and the “ABSOLUTE LYMPHOCYTE” value [1] was 10069.5 CELLS/uL. For the same compound, the “ABSOLUTE MONOCYTE” value [1] was 50 CELLS/uL, the “ABSOLUTE SEGMENTED NEUTROPHIL” value [1] was 516.83 CELLS/uL and the BASOPHIL [1] was 0%. The EOSINOPHIL [1] was 0.17%, the “ERYTHROCYTE COUNT” value [1] was 5.44 x10E6/uL and the HEMATOCRIT [1] was 33.88%. The HEMOGLOBIN [1] was 13.23 G/DL, the “LEUKOCYTE COUNT” value [1] was 10.65 x10E3/uL and the LYMPHOCYTE [1] was 94.67%. For the same compound, the “MEAN CORPUSCULAR HEMOGLOBIN” value [1] was 24.37 pg, the “MEAN CORPUSCULAR HEMOGLOBIN CONCENTRATION” value [1] was 39.05 G/DL and the “MEAN CORPUSCULAR VOLUME” value [1] was 62.38 fL. The MONOCYTE [1] was 0.67%, the NEUTROPHIL [1] was 4.5% and the “NUCLEATED RED BLOOD CELLS” value [1] was 0.33 /100WBC. The “PLATELET COUNT” value [1] was 414.5 x10E3/uL, the “ALANINE AMINOTRANSFERASE” value [1] was 72 u/L and the ALBUMIN [1] was 3.75 G/DL. The “ALKALINE PHOSPHATASE” value [1] was 375 u/L, the “ASPARTATE AMINOTRANSFERASE” value [1] was 87.5 u/L and the “BLOOD UREA NITROGEN” value [1] was 14 mg/dL. The “CARBON DIOXIDE” value [1] was 27.5 mmol/L, the CHLORIDE [1] was 95.83 MEQ/L and the CHOLESTEROL [1] was 68.5 mg/dL. The “CREATINE PHOSPHOKINASE” value [1] was 284.33 u/L, the CREATININE [1] was 0.16 mg/dL and the GLUCOSE [1] was 156.67 mg/dL. For the same compound, the “LACTATE DEHYDROGENASE” value [1] was 101.83 u/L, the LIPASE [1] was 9.67 u/L and the PHOSPHORUS [1] was 10.33 mg/dL. For the same compound, the POTASSIUM [1] was 5.22 MEQ/L, the SODIUM [1] was 137.67 MEQ/L and the “TOTAL BILIRUBIN” value [1] was 0.13 mg/dL. For the same compound, the “TOTAL PROTEIN” value [1] was 5.43 G/DL, the “URIC ACID” value [1] was 0.8 mg/dL and the “ABSOLUTE BASOPHIL” value [2] was 0 CELLS/uL. For the same compound, the “ABSOLUTE EOSINOPHIL” value [2] was 20.67 CELLS/uL, the “ABSOLUTE LYMPHOCYTE” value [2] was 11518.33 CELLS/uL and the “ABSOLUTE MONOCYTE” value [2] was 47 CELLS/uL. For the same compound, the “ABSOLUTE SEGMENTED NEUTROPHIL” value [2] was 614 CELLS/uL, the BASOPHIL [2] was 0% and the EOSINOPHIL [2] was 0.17%. For the same compound, the “ERYTHROCYTE COUNT” value [2] was 5.61 x10E6/uL, the HEMATOCRIT [2] was 34.25% and the HEMOGLOBIN [2] was 13.38 G/DL. For the same compound, the “LEUKOCYTE COUNT” value [2] was 12.2 x10E3/uL, the LYMPHOCYTE [2] was 94.33% and the “MEAN CORPUSCULAR HEMOGLOBIN” value [2] was 23.83 pg. The “MEAN CORPUSCULAR HEMOGLOBIN CONCENTRATION” value [2] was 39.08 G/DL, the “MEAN CORPUSCULAR VOLUME” value [2] was 61.03 fL and the MONOCYTE [2] was 0.33%. For the same compound, the NEUTROPHIL [2] was 5.17%, the “NUCLEATED RED BLOOD CELLS” value [2] was 0 /100WBC and the “PLATELET COUNT” value [2] was 941.83 x10E3/uL. For the same compound, the “ALANINE AMINOTRANSFERASE” value [2] was 68.83 u/L, the ALBUMIN [2] was 4.12 G/DL and the “ALKALINE PHOSPHATASE” value [2] was 492.67 u/L. The “ASPARTATE AMINOTRANSFERASE” value [2] was 83.33 u/L, the “BLOOD UREA NITROGEN” value [2] was 14 mg/dL and the “CARBON DIOXIDE” value [2] was 37 mmol/L. For the same compound, the CHLORIDE [2] was 98.67 MEQ/L, the CHOLESTEROL [2] was 56.5 mg/dL and the “CREATINE PHOSPHOKINASE” value [2] was 167.33 u/L. For the same compound, the CREATININE [2] was 0.17 mg/dL, the GLUCOSE [2] was 157.5 mg/dL and the “LACTATE DEHYDROGENASE” value [2] was 104.83 u/L. It also gave an LIPASE [2] of 10 u/L, a PHOSPHORUS [2] of 10.43 mg/dL and a POTASSIUM [2] of 5.46 MEQ/L. For the same compound, the SODIUM [2] was 143.87 MEQ/L, the “TOTAL BILIRUBIN” value [2] was 0.17 mg/dL and the “TOTAL PROTEIN” value [2] was 5.72 G/DL. For the same compound, the “URIC ACID” value [2] was 0.85 mg/dL, the “ABSOLUTE BASOPHIL” value [3] was 0 CELLS/uL and the “ABSOLUTE EOSINOPHIL” value [3] was 98 CELLS/uL. For the same compound, the “ABSOLUTE LYMPHOCYTE” value [3] was 10170.33 CELLS/uL, the “ABSOLUTE MONOCYTE” value [3] was 49.33 CELLS/uL and the “ABSOLUTE SEGMENTED NEUTROPHIL” value [3] was 815.67 CELLS/uL. For the same compound, the BASOPHIL [3] was 0%, the EOSINOPHIL [3] was 0.67% and the “ERYTHROCYTE COUNT” value [3] was 5.08 x10E6/uL. For the same compound, the HEMATOCRIT [3] was 32.6%, the HEMOGLOBIN [3] was 13 G/DL and the “LEUKOCYTE COUNT” value [3] was 11.13 x10E3/uL. For the same compound, the LYMPHOCYTE [3] was 91%, the “MEAN CORPUSCULAR HEMOGLOBIN” value [3] was 25.63 pg and the “MEAN CORPUSCULAR HEMOGLOBIN CONCENTRATION” value [3] was 39.9 G/DL. For the same compound, the “MEAN CORPUSCULAR VOLUME” value [3] was 64.17 fL, the MONOCYTE [3] was 0.67% and the NEUTROPHIL [3] was 7.67%. The “NUCLEATED RED BLOOD CELLS” value [3] was 0 /100WBC, the “PLATELET COUNT” value [3] was 968 x10E3/uL and the “ALANINE AMINOTRANSFERASE” value [3] was 76 u/L. The ALBUMIN [3] was 3.93 G/DL, the “ALKALINE PHOSPHATASE” value [3] was 408.67 u/L and the “ASPARTATE AMINOTRANSFERASE” value [3] was 89 u/L. The “BLOOD UREA NITROGEN” value [3] was 12.33 mg/dL, the “CARBON DIOXIDE” value [3] was 25 mmol/L and the CHLORIDE [3] was 96.67 MEQ/L. For the same compound, the CHOLESTEROL [3] was 78 mg/dL, the “CREATINE PHOSPHOKINASE” value [3] was 356.67 u/L and the CREATININE [3] was 0.21 mg/dL. The GLUCOSE [3] was 154.33 mg/dL, the “LACTATE DEHYDROGENASE” value [3] was 122.67 u/L and the LIPASE [3] was 12 u/L. It also gave a PHOSPHORUS [3] of 9.57 mg/dL, a POTASSIUM [3] of 5.36 MEQ/L and an SODIUM [3] of 139.33 MEQ/L. For the same compound, the “TOTAL BILIRUBIN” value [3] was 0.13 mg/dL, the “TOTAL PROTEIN” value [3] was 5.4 G/DL and the “URIC ACID” value [3] was 0.5 mg/dL.
